Results: patent publication US20240316059A1, “PEPTIDE DRUG CONJUGATES” (Oncopeptides AB, priority 2021, published 2024)
Where two headings read alike, the source gives them in different places.

Tests used:
MM.1S cells = test: In vitro cytotoxic potency in MM.1S cell viability assay (CellTiter-Glo); assay type: cell-based, human; details: Homo sapiens, MM1.S, 72 h
Method: Methods: MM.1S Cells were cultivated in RPMI medium 1640 (IX) supplemented with 10 μg/μL penicillin/streptomycin, 10% heat inactivated FBS, 0.1 mM Sodium Pyruvate, 1×MEM NEAA (ThermoFisher) and 1 mM HEPES. Cells were grown to reach log phase before being exposed to the test compounds.
(§1) Test compounds (Example compounds 1 to 36, 38 to 41 and 45 to 48) and comparative compounds (bendamustine, busulfan, melphalan, chlorambucil and 4-hydroperoxy cyclophosphamide) were dissolved in 100% DMSO and added to a 384 assay plate. Additional DMSO was added to maintain the same final DMSO concentration (0.2%) in all wells. 25 μL cell suspension with a concentration of 100000 cells/mL was added to each well. The cells were cultured in a CO2 incubator at 37° C. for 72 h. Plates were equilibrated to room temperature for 30 minutes before adding 20 μL CellTiter-Glo® 2.0 (Promega) reagent to all wells. The plate was then allowed to stabilize for 20 minutes before recording the luminescence (emission filter 700 nm) in an Envision plate reader.
(§2) All cells were cultivated in RPMI medium 1640 (IX). All media was supplemented with 10 μg/μl penicillin/streptomycin, 10% heat inactivated FBS, 0.1 mM Sodium Pyruvate, 1×MEM NEAA (ThermoFisher) and 1 mM HEPES. The DERL-2 cells had higher FBS (20%) and 40 ng/mL IL-2 was added. hPBMCs were thawed and allowed to acclimatise overnight and then stimulated with 10 μg/mL PHA-M and 40 ng/mL IL-2 for 4 hours before being exposed to test compounds. All cells, except for hPBMCs, were grown to reach log phase before being exposed to the test compounds.
as §1, with “compounds” for “compounds (Example compounds 1 to 36, 38 to 41 and 45 to 48) and comparative compounds (bendamustine, busulfan, melphalan, chlorambucil and 4-hydroperoxy cyclophosphamide)”, “(Em” for “(emission”

AMO-1 = test: In vitro cytotoxicity, AMO-1 (Multiple Myeloma); assay type: cell-based; details: Homo sapiens, read-out: Cytotoxicity IC50, AMO-1
Method: as §2
as §1, with “compounds” for “compounds (Example compounds 1 to 36, 38 to 41 and 45 to 48) and comparative compounds (bendamustine, busulfan, melphalan, chlorambucil and 4-hydroperoxy cyclophosphamide)”, “(Em” for “(emission”

EJM = test: In vitro cytotoxicity, EJM (Multiple Myeloma); assay type: cell-based; details: Homo sapiens, 72 h
Method: as §2
as §1, with “compounds” for “compounds (Example compounds 1 to 36, 38 to 41 and 45 to 48) and comparative compounds (bendamustine, busulfan, melphalan, chlorambucil and 4-hydroperoxy cyclophosphamide)”, “(Em” for “(emission”

KMS-12-BM = test: In vitro cytotoxicity, KMS-12-BM (Multiple Myeloma); assay type: cell-based; details: Homo sapiens, 72 h
Method: as §2
as §1, with “compounds” for “compounds (Example compounds 1 to 36, 38 to 41 and 45 to 48) and comparative compounds (bendamustine, busulfan, melphalan, chlorambucil and 4-hydroperoxy cyclophosphamide)”, “(Em” for “(emission”

OPM-2 = test: In vitro cytotoxicity, OPM-2 (Multiple Myeloma); assay type: cell-based; details: Homo sapiens, read-out: Cytotoxicity IC50, OPM-2
Method: as §2
as §1, with “compounds” for “compounds (Example compounds 1 to 36, 38 to 41 and 45 to 48) and comparative compounds (bendamustine, busulfan, melphalan, chlorambucil and 4-hydroperoxy cyclophosphamide)”, “(Em” for “(emission”

RPMI-8226 = test: In vitro cytotoxicity, RPMI-8226 (Multiple Myeloma, resistant); assay type: cell-based; details: Homo sapiens, read-out: Cytotoxicity IC50, RPMI-8226
Method: as §2
as §1, with “compounds” for “compounds (Example compounds 1 to 36, 38 to 41 and 45 to 48) and comparative compounds (bendamustine, busulfan, melphalan, chlorambucil and 4-hydroperoxy cyclophosphamide)”, “(Em” for “(emission”

U266 = test: In vitro cytotoxicity, U266 (Multiple Myeloma); assay type: cell-based; details: Homo sapiens, read-out: Cytotoxicity IC50, U266
Method: as §2
as §1, with “compounds” for “compounds (Example compounds 1 to 36, 38 to 41 and 45 to 48) and comparative compounds (bendamustine, busulfan, melphalan, chlorambucil and 4-hydroperoxy cyclophosphamide)”, “(Em” for “(emission”

SC-1 = test: In vitro cytotoxicity, SC-1 (B cell Lymphoma); assay type: cell-based; details: Homo sapiens, read-out: Cytotoxicity IC50, SC-1
Method: as §2
as §1, with “compounds” for “compounds (Example compounds 1 to 36, 38 to 41 and 45 to 48) and comparative compounds (bendamustine, busulfan, melphalan, chlorambucil and 4-hydroperoxy cyclophosphamide)”, “(Em” for “(emission”

[1] = In vitro cytotoxicity, BJ fibroblasts (normal cells); assay type: cell-based; details: human, CellTiter-Glo 2.0
Method: as §2
as §1, with “compounds” for “compounds (Example compounds 1 to 36, 38 to 41 and 45 to 48) and comparative compounds (bendamustine, busulfan, melphalan, chlorambucil and 4-hydroperoxy cyclophosphamide)”, “(Em” for “(emission”

U937 = test: In vitro cytotoxicity, U937 (Histiocytic Lymphoma); assay type: cell-based; details: Homo sapiens, U-937; 72 h, CellTiter-Glo 2.0; read-out: Cytotoxicity IC50, U937
Method: as §2
as §1, with “compounds” for “compounds (Example compounds 1 to 36, 38 to 41 and 45 to 48) and comparative compounds (bendamustine, busulfan, melphalan, chlorambucil and 4-hydroperoxy cyclophosphamide)”, “(Em” for “(emission”

SK-MM-1 = test: In vitro cytotoxicity, SK-MM-1 (Plasma Cell Leukemia); assay type: cell-based; details: Homo sapiens; 72 h, CellTiter-Glo 2.0; read-out: Cytotoxicity IC50, SK-MM-1
Method: as §2
as §1, with “compounds” for “compounds (Example compounds 1 to 36, 38 to 41 and 45 to 48) and comparative compounds (bendamustine, busulfan, melphalan, chlorambucil and 4-hydroperoxy cyclophosphamide)”, “(Em” for “(emission”

DOHH-2 = test: In vitro cytotoxicity, DOHH-2 (B Cell Lymphoma); assay type: cell-based; details: Homo sapiens, DOHH-2; 72 h, CellTiter-Glo 2.0; read-out: Cytotoxicity IC50, DOHH-2
Method: as §2
as §1, with “compounds” for “compounds (Example compounds 1 to 36, 38 to 41 and 45 to 48) and comparative compounds (bendamustine, busulfan, melphalan, chlorambucil and 4-hydroperoxy cyclophosphamide)”, “(Em” for “(emission”

HG-3 = test: In vitro cytotoxicity, HG-3 (Chronic Lymphocytic Leukemia); assay type: cell-based; details: Homo sapiens, HG-3; 72 h, CellTiter-Glo 2.0; read-out: Cytotoxicity IC50, HG-3
Method: as §2
as §1, with “compounds” for “compounds (Example compounds 1 to 36, 38 to 41 and 45 to 48) and comparative compounds (bendamustine, busulfan, melphalan, chlorambucil and 4-hydroperoxy cyclophosphamide)”, “(Em” for “(emission”

SU-DHL-8 = test: In vitro cytotoxicity, SU-DHL-8 (B-cell non-Hodgkin Lymphoma); assay type: cell-based; details: Homo sapiens, SU-DHL-8; 72 h, CellTiter-Glo 2.0; read-out: Cytotoxicity IC50, SU-DHL-8
Method: as §2
as §1, with “compounds” for “compounds (Example compounds 1 to 36, 38 to 41 and 45 to 48) and comparative compounds (bendamustine, busulfan, melphalan, chlorambucil and 4-hydroperoxy cyclophosphamide)”, “(Em” for “(emission”

Toledo = test: In vitro cytotoxicity, Toledo (Diffuse Large B Cell Lymphoma); assay type: cell-based; details: Homo sapiens, 72 h, CellTiter-Glo 2.0, read-out: Cytotoxicity IC50, Toledo
Method: as §2
as §1, with “compounds” for “compounds (Example compounds 1 to 36, 38 to 41 and 45 to 48) and comparative compounds (bendamustine, busulfan, melphalan, chlorambucil and 4-hydroperoxy cyclophosphamide)”, “(Em” for “(emission”

[2] = read-out: Cytotoxicity IC50, MM.1S
[3] = CellTiter-Glo 2.0, read-out: Cytotoxicity IC50, EJM
[4] = CellTiter-Glo 2.0, read-out: Cytotoxicity IC50, KMS-12-BM
[5] = RPMI-8226, 72 h, CellTiter-Glo 2.0

Row | Structure (SMILES) | IC50 (MM.1S cells; [2]) | IC50 (MM.1S cells; read-out: MM.1S IC50) | IC50 at 72 h [1] | IC50 (AMO-1; AMO1, 72 h, CellTiter-Glo 2.0) | IC50 (EJM; [3]) | IC50 (KMS-12-BM; [4]) | IC50 (OPM-2; OPM-2, 72 h, CellTiter-Glo 2.0) | IC50 (RPMI-8226; [5]) | IC50 (U266; U-266, 72 h, CellTiter-Glo 2.0) | IC50 (SC-1; SC-1, 72 h, CellTiter-Glo 2.0) | also measured
1 | CCOC(=O)[C@H](CC(C)C)NC(=O)[C@@H](N)CCc1nc2cc(N(CCCl)CCCl)ccc2n1-c1ccccc1 [Example 13, Ethyl (2S)-2-[[(2S)-2-amino-4-[5-[bis(2-chloroethyl)amino]-1-phenyl-benzimidazol-2-yl]butanoyl]amino]-4-methyl-pentanoate] | 49 nM | 49 nM | > 2000 nM | – | – | – | – | – | – | – | IC50 (AMO-1; AMO1, 72 h): 965 nM; IC50 (EJM; read-out: Cytotoxicity IC50, EJM): 356 nM; IC50 (KMS-12-BM; read-out: Cytotoxicity IC50, KMS-12-BM): 137 nM; IC50 (OPM-2; OPM-2, 72 h): 2110 nM; IC50 (RPMI-8226; RPMI-8226, 72 h): 1720 nM; IC50 (U266; U-266, 72 h): 400 nM; IC50 (SC-1; SC-1, 72 h): 134 nM
2 | CC(C)C[C@H](NC(=O)[C@@H](N)CCc1nc2cc(N(CCCl)CCCl)ccc2n1C)C(=O)N(C)C [Example 30, (2S)-2-[[(2S)-2-Amino-4-[5-[bis(2-chloroethyl)amino]-1-methyl-benzimidazol-2-yl]butanoyl]amino]-N,N,4-trimethyl-pentanamide] | 39.7 nM | 39.7 nM | > 2000 nM | 653 nM | 173 nM | 45 nM | 322 nM | 492 nM | 131 nM | 53.7 nM | –
3 | CCOC(=O)[C@H](Cc1ccc(F)cc1)NC(=O)[C@H](CCc1nc2cc(N(CCCl)CCCl)ccc2n1C)NC(C)=O [Example 34, Ethyl (2S)-2-[[(2S)-2-acetamido-4-[5-[bis(2-chloroethyl)amino]-1-methyl-benzimidazol-2-yl]butanoyl]amino]-3-(4-fluorophenyl)propanoate] | 68.3 nM | 68.3 nM | > 2000 nM | 758 nM | 637 nM | 105 nM | 961 nM | 1450 nM | 266 nM | 1060 nM | IC50 (U937): 397 nM; IC50 (SK-MM-1): 604 nM; IC50 (DOHH-2): 543 nM; IC50 (HG-3): 888 nM; IC50 (SU-DHL-8): 202 nM; IC50 (Toledo): 328 nM
